The source made the active and inactive calls.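 How the source made its calls: active means parasite count per well reduced by over 3 SD from the mean, with host cell number above 80% of untreated; inactive means the rest.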

The AC50 is the concentration giving half of the maximal activity seen.

In the assay the test system is L. donovani amastigotes in THP-1 macrophages, DAPI imaging, 72 h. In words: L. donovani intracellular amastigote growth inhibitors, imaging, THP-1 host macrophages, single concentration (AID 977614).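 Further: signal is the parasite per host cell ratio from DAPI stained kinetoplasts and nuclei.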
Turning to `COc1ccccc1NC(=O)N1C[C@H]2[C@@H](c3ccccc31)[C@H](CO)N2Cc1ccc2c(c1)OCO2`, the AC50 is > 10 µM (inactive).

On to `CC(=O)N1[C@H](CO)[C@@H]2c3ccccc3N(C(=O)c3ccc(F)cc3)C[C@@H]21`, for which the AC50 is > 10 µM (inactive).

Regarding `O=C(CC(F)(F)F)N1C[C@H]2[C@@H](c3ccccc31)[C@@H](CO)N2C(=O)c1ccncc1`, the AC50 is > 10 µM (inactive).

As to `C[C@H](CO)N1C[C@H](C)[C@H](CN(C)C(=O)NC2CCCC2)OCc2cnnn2CCCC1=O`, the AC50 was > 10 µM (inactive).

For the compound `COc1ccccc1NC(=O)N1C[C@H]2[C@@H](c3ccccc31)[C@H](CO)N2C(=O)C1CCCC1`, the AC50 was > 10 µM (inactive).

Turning to `CCC(=O)NC[C@H]1N[C@H](CO)[C@@H]1c1ccc(-c2cccnc2)cc1`, the AC50 is > 10 µM (inactive).

Turning to `O=C(CN1CCOCC1)N1[C@H](CO)[C@@H]2c3ccccc3NC[C@@H]21`, the AC50 is > 10 µM (inactive).

`O=C(CN1CCOCC1)NC[C@H]1N[C@H](CO)[C@@H]1c1ccc(-c2ccccc2)cc1`: the AC50 was > 10 µM (inactive).

On to `CCN(C[C@@H]1[C@@H](c2ccc(-c3cccnc3)cc2)[C@H](CO)N1C(C)=O)C(C)=O`, for which the AC50 was > 10 µM (inactive).

For `O=C(CC(F)(F)F)N1C[C@H]2[C@@H](c3ccccc31)[C@H](CO)N2C(=O)c1ccncc1`, the AC50 is > 10 µM (inactive).

As to `CNC[C@H]1OCc2cnnn2CCCC(=O)N([C@H](C)CO)C[C@@H]1C`, the AC50 was > 10 µM (inactive).

Consider `Cc1cccc(S(=O)(=O)N2C[C@H]3[C@@H](c4ccccc42)[C@@H](CO)N3CC2CCCC2)c1`, for which the AC50 is > 10 µM (inactive).

As to `C[C@@H]1CN([C@H](C)CO)C(=O)CCCn2cc(nn2)CO[C@H]1CN(C)C(=O)CCC(F)(F)F`, the AC50 is > 10 µM (inactive).

As to `CC(=O)N1[C@H](CN(CC(C)C)C(=O)c2ccccn2)[C@H](c2ccccc2)[C@@H]1CO`, the AC50 was > 10 µM (inactive).

Turning to `COCC(=O)N(C[C@@H]1[C@@H](c2ccccc2)[C@@H](CO)N1C(=O)NC(C)C)C(C)C`, the AC50 was > 10 µM (inactive).

Turning to `CCCNC[C@H]1[C@@H](c2ccc(C3=CCCCC3)cc2)[C@@H](CO)N1C(=O)C1CCC1`, the AC50 was > 10 µM (inactive).

For the compound `O=C(Nc1ccccc1Cl)N1C[C@@H]2[C@H](c3ccccc31)[C@@H](CO)N2Cc1ccncc1`, the AC50 was > 10 µM (inactive).

Regarding `C/C=C/c1ccc([C@@H]2[C@H](CO)N[C@H]2CN(CC)C(=O)CN2CCOCC2)cc1`, the AC50 was > 10 µM (inactive).

For `CC(=O)N1[C@H](CN(CC(C)C)C(=O)c2ccccn2)[C@@H](c2ccccc2)[C@@H]1CO`, the AC50 is > 10 µM (inactive).

With `C/C=C/c1ccc([C@H]2[C@@H](CNC(=O)NC(C)C)N(C(=O)C3CC3)[C@H]2CO)cc1`, the AC50 is > 10 µM (inactive).

With `CCCNC(=O)N1[C@H](CO)[C@@H]2c3ccccc3N(C(=O)c3ccncc3)C[C@@H]21`, the AC50 was > 10 µM (inactive).

For the compound `COCC(=O)N1[C@H](CO)[C@@H]2c3ccccc3N(C(=O)Nc3ccccc3Cl)C[C@@H]21`, the AC50 is > 10 µM (inactive).

In the case of `COCC(=O)N1C[C@H]2[C@@H](c3ccccc31)[C@H](CO)N2Cc1cc(F)ccc1F`, the AC50 is > 10 µM (inactive).

On to `C[C@H](CO)N1C[C@H](C)[C@H](CN(C)Cc2cccc(C(F)(F)F)c2)OCc2cnnn2CCCC1=O`, for which the AC50 is > 10 µM (inactive).

Regarding `C[C@H](CO)N1C[C@H](C)[C@H](CN(C)S(=O)(=O)c2ccc(Oc3ccccc3)nc2)OCc2cnnn2CCCC1=O`, the AC50 is > 10 µM (inactive).

In the case of `CC(=O)NC[C@H]1[C@H](c2ccc(C3=CCCC3)cc2)[C@@H](CO)N1Cc1cccnc1`, the AC50 was > 10 µM (inactive).

Turning to `CCC(=O)N1[C@H](CO)[C@H](c2ccc(-c3cccc(OC)c3)cc2)[C@H]1CNC(C)=O`, the AC50 was > 10 µM (inactive).

In the case of `COc1ccc(C(=O)N2C[C@@H]3[C@H](c4ccccc42)[C@@H](CO)N3C(=O)Cc2ccccn2)cc1`, the AC50 is > 10 µM (inactive).

`CC(=O)N1[C@@H](CO)[C@@H]2c3ccccc3N(C(=O)c3ccc(F)cc3)C[C@@H]21`: the AC50 is > 10 µM (inactive).

Turning to `COc1cccc(NC(=O)N2[C@@H](CO)[C@H](c3ccccc3)[C@@H]2CNCC(C)C)c1`, the AC50 was > 10 µM (inactive).

Consider `CCC(=O)N1[C@H](CN(CC)C(=O)c2cccc(F)c2)[C@@H](c2ccccc2)[C@@H]1CO`, for which the AC50 is > 10 µM (inactive).

For the compound `COc1ccccc1CN1[C@H](CO)[C@@H]2c3ccccc3N(C(=O)c3cccnc3)C[C@@H]21`, the AC50 was > 10 µM (inactive).

`Cc1noc(C)c1NC(=O)N(C)C[C@H]1OCc2cn(nn2)CCCC(=O)N([C@H](C)CO)C[C@H]1C`: the AC50 was > 10 µM (inactive).

In the case of `C[C@H](CO)N1C[C@H](C)[C@@H](CN(C)S(=O)(=O)c2ccc3c(c2)OCCCO3)OCc2cnnn2CCCC1=O`, the AC50 is > 10 µM (inactive).

As to `CCC(=O)N1[C@H](CO)[C@H]2c3ccccc3N(C(=O)c3cnccn3)C[C@H]21`, the AC50 is > 10 µM (inactive).

`CCC(=O)N1[C@H](CO)[C@H](c2ccc(C#CC3(O)CCCC3)cc2)[C@@H]1CNC(C)=O`: the AC50 was > 10 µM (inactive).

For the compound `CN(C[C@@H]1[C@H](c2ccccc2)[C@@H](CO)N1Cc1ccccn1)S(C)(=O)=O`, the AC50 is > 10 µM (inactive).

On to `C/C=C/c1ccc([C@@H]2[C@@H](CO)N(C(C)=O)[C@H]2CN(CC)C(=O)CN(C)C)cc1`, for which the AC50 was > 10 µM (inactive).

As for `O=C(CC1CC1)N1[C@@H](CO)[C@@H]2c3ccccc3N(S(=O)(=O)c3ccccc3F)C[C@@H]21`, the AC50 is > 10 µM (inactive).

In the case of `C[C@H](CO)N1C[C@H](C)[C@@H](CN(C)Cc2ccc(C(=O)Nc3ccccc3N)cc2)OCc2cnnn2CCCC1=O`, the AC50 was > 10 µM (inactive).

Regarding `CCCNC(=O)N1[C@H](CNC(=O)c2cccc(F)c2)[C@@H](c2ccccc2)[C@@H]1CO`, the AC50 is > 10 µM (inactive).

Take `O=C(Nc1ccc(Cl)cc1)N1C[C@@H]2[C@H](c3ccccc31)[C@H](CO)N2CC1CCCCC1`: the AC50 was > 10 µM (inactive).

`C[C@H]1CN([C@@H](C)CO)C(=O)CCCn2nncc2CO[C@H]1CN(C)CC1CCCCC1`: the AC50 is > 10 µM (inactive).

With `C/C=C/c1ccc([C@@H]2[C@H](CO)N(C(C)=O)[C@H]2CN(CC)C(=O)CN(C)C)cc1`, the AC50 is > 10 µM (inactive).

Take `Cc1noc(C)c1NC(=O)N(C)C[C@@H]1OCc2cn(nn2)CCCC(=O)N([C@@H](C)CO)C[C@H]1C`: the AC50 was > 10 µM (inactive).

Take `CC(=O)N1[C@@H](CO)[C@H](c2ccccc2)[C@@H]1CN(CC(C)C)C(=O)c1ccccn1`: the AC50 is > 10 µM (inactive).

For `CC(=O)N(Cc1cccc(F)c1)C[C@H]1[C@@H](c2ccccc2)[C@@H](CO)N1C(C)=O`, the AC50 was > 10 µM (inactive).

Turning to `C[C@@H]1CN([C@@H](C)CO)C(=O)CCCn2cc(nn2)CO[C@H]1CN(C)C(=O)CCC(F)(F)F`, the AC50 is > 10 µM (inactive).

In the case of `CN1C[C@@H]2[C@H](c3ccccc31)[C@H](CO)N2C(=O)C1CCOCC1`, the AC50 was > 10 µM (inactive).

`O=C(CC(F)(F)F)N1C[C@@H]2[C@H](c3ccccc31)[C@@H](CO)N2CC1CCOCC1`: the AC50 was > 10 µM (inactive).
